Test results reported in EP0563345B1, “NOVEL 4-ARYLPIPERAZINES AND 4-ARYLPIPERIDINES” (MCNEILAB, INC., priority 1991, dated 1993).
Where two headings read alike, the source gives them in different places.

How the values were obtained:
Male, Fischer 344 rats = assay: Block of Conditioned Avoidance Responding (Rat) test (CAR); conditions: for CAR 5 mg/kg IP Administration (% change CAR) / CAR 15 mg/kg IP Administration (% change CAR): negative number = blockade of CAR; for CAR IP Administration (% change CAR) at 30 mg/kg: 30 mg/kg IP
From the text: Apparatus: Rat operant chambers, housed within sound attenuated booths, both from Capden Instruments Ltd., were used in this test. The test chamber (8" H x […] D) is constructed of aluminum and plexiglass with floor grid bars of stainless-steel (1/8" O.D.) spaced 9/16" apart. A stainless-steel operation level 1-1/2" wide projects 3/4" into the chamber and is positioned 2-2/8" above the grid floor. The shock stimulus is delivered via the grid floor by a Coulbourn Instruments solid state module. The parameters of the test and the collection of data are controlled automatically.
The rats are trained for two weeks to approach criterion levels in the avoidance test (90% avoidance rate). One-hour training sessions are run at about the same time each day for four or five days a week. The training session consists of 120 trials, with the conditioned stimuli presented every 30 sec. A trial begins with presentation of the conditioned stimuli (a light and a tone). If the rat responds by depressing the operant lever during the 15-second presentation of the conditioned stimuli, the trial is terminated and the animal is credited with a CAR. Failure to respond during the conditioned stimuli causes the presentation of the unconditioned stimulus (UCS), a 0.7 mA shock which is accompanied by a light and tone for five seconds. If the rat depressed the lever within the ten-second period, the shock and trial are terminated and an escape response recorded. If the rat fails to depress the lever during the UCS (shock), the trial is terminated after ten seconds of shock and the absence of a response is scored as a failure to escape. Intertrial level presses have no effect. If a rat performs at the 90% CAR level for two weeks, it is then run twice a week on the test schedule (see below) until baseline performance stabilized.
Trained rats are run in a one-hour session on two consecutive days at the same time and in the same test chamber each day. The sessions consist of 60 trials, one every minute. The conditioned stimuli are presented for 15 sec (maximum) and the unconditioned stimuli five sec (maximum). On Day 1, a vehicle solution is administered to the rats at a time preceding the trial run corresponding to the pretreatment time for the test compound. The route of administration and the volume of vehicle are also matched to that of the test compound.
The percent change in CAR on the drug treatment day compared to vehicle pretreatment day is the key measure. The percent change (% change) in CAR is determined using the following formula: % change CAR = ((% CAR for Day 2/% CAR for Day 1) x 100)-100 [formula]
A negative number indicates a blockade of CAR, whereas a positive number would indicate increased CAR. The test results are reported as the mean % change for the group of rats. Failure to escape, a measure of the general sedative potential of the compound, was calculated for each animal as follows: % Failures = # of Failures to Escape/# of trials [formula]
The % failures, viz., loss of escape, is also reported as a group mean. Failures to escape are monitored closely and a session is terminated if ten failures occurred.
In the Tables and formulas therein, OiPr is isopropoxy, Me is methyl, MeO is methoxy, Et is ethyl, Ph is phenyl, n-Bu is normal butyl, cC6H11 is cyclohexyl, BOC is t-butyloxycarbonyl, Ac is acetyl, and NT is not tested in that partcular test. The escape loss numbers are shown at CAR 5 mg/kg unless otherwise noted.

[1] = target: T1, D-2 (dopamine-2) receptors (Rattus norvegicus, UniProt P61169); assay: biochemical; assay type: binding, male, Wistar rats
T1 construct: The D2 assay employed a P2 fraction from the striatum, the ligand ^3H-spiperone at a concentration of 0.05 nM; from tissue; host or cells: rat striatum, P2 fraction (synaptosomal membranes), male Wistar rats
Experimental: The dopamine D2 binding activity of compounds was determined using a P2 fraction (synaptosomal membranes) prepared from male, Wistar rats.
The data from this assay were analyzed by calculating the percent inhibition of the binding of the tritiated ligands by given concentrations of the test compound. Kl values, where given, were obtained from the logit analysis of concentration-inhibition curves.

Male Charles-River rats = assay: Rat Glass Bead Test (propulsive motility of the distal colon); assay type: in vivo; conditions: mean expulsion time of glass bead
[2] = rat striatum P2 fraction, 3H-spiperone 0.05 nM, read-out: Receptor Binding (Ki nM) D2

T1 sequence (P61169 whole entry): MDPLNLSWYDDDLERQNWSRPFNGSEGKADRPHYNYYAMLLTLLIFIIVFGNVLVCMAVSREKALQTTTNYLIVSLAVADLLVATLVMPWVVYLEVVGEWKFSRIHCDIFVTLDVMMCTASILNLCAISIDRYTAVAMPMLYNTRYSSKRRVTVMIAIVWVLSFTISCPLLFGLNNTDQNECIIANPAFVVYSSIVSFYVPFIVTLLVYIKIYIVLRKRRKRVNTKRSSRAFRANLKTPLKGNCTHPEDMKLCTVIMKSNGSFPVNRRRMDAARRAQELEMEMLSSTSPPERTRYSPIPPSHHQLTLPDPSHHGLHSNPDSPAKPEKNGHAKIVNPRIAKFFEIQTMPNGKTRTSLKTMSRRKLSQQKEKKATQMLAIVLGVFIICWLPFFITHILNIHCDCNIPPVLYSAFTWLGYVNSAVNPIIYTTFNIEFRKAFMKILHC

## COc1ccc(CN2CCN(c3ccccc3OC(C)C)CC2)cc1C(=O)N1CCCCC1 [Compound 29]
Male, Fischer 344 rats
  CAR 5 mg/kg IP Administration (% change CAR): -98%
Male, Fischer 344 rats; at CAR 5 mg/kg IP
  (Escape Loss) % failures to escape: 50%
[1]; [2]
  Ki: 32 nM

## O=C(c1cccc(CN2CCN(c3nsc4ccccc34)CC2)c1)N1CCCCC1 [Compound 32]
Male Charles-River rats; IP, 1.0 mg/kg
  Glass bead expulsion time: 41 min
Male, Fischer 344 rats
  CAR 5 mg/kg IP Administration (% change CAR): -90%
Male, Fischer 344 rats; at CAR 5 mg/kg IP
  (Escape Loss) % failures to escape: 8%

## O=C(c1cccc(CN2CCN(c3cccc4ccccc34)CC2)c1)N1CCCCC1 [Compound 35]
Male Charles-River rats; PO, 10.0 mg/kg
  Glass bead expulsion time: 19 min
Male, Fischer 344 rats
  CAR 15 mg/kg IP Administration (% change CAR): -19%
Male, Fischer 344 rats; at CAR 15 mg/kg IP
  (Escape Loss) % failures to escape: 0%

## CC(C)Oc1ccccc1C1CCN(Cc2cccc(C(=O)N3CCCCC3)c2)CC1.Cl [Compound 38, 1-[3-[[4-[2-(1-Methylethoxy)phenyl]-1-piperidinyl]methyl]benzoyl]-piperidine hydrochloride]
Male, Fischer 344 rats
  CAR 5 mg/kg IP Administration (% change CAR): -92%
Male, Fischer 344 rats; at CAR 5 mg/kg IP
  (Escape Loss) % failures to escape: 5%
[1]; [2]
  Ki: 2.8 nM

## CC(C)Oc1ccccc1C1CCN(Cc2cccc(C(=O)N3CCOCC3)c2)CC1 [Compound 41]
Male, Fischer 344 rats
  CAR 5 mg/kg IP Administration (% change CAR): -96%
Male, Fischer 344 rats; at CAR 5 mg/kg IP
  (Escape Loss) % failures to escape: 70%
[1]; [2]
  Ki: 9.6 nM

## CCOC(=O)C1CCN(C(=O)c2cccc(CN3CCN(c4ccccc4OC(C)C)CC3)c2)CC1 [Compound 42]
Male, Fischer 344 rats
  CAR 5 mg/kg IP Administration (% change CAR): -18%
Male, Fischer 344 rats; at CAR 5 mg/kg IP
  (Escape Loss) % failures to escape: 0%
[1]; [2]
  Ki: 121 nM

## CC(C)Oc1ccccc1N1CCN(Cc2cccc(C(=O)N(C)CCc3ccccc3)c2)CC1 [Compound 43]
Male, Fischer 344 rats
  CAR 15 mg/kg IP Administration (% change CAR): -77%
Male, Fischer 344 rats; at CAR 15 mg/kg IP
  (Escape Loss) % failures to escape: 0%
[1]; [2]
  Ki: 19 nM

## CC(C)Oc1ccccc1N1CCN(Cc2cccc(C(=O)N3CCC(=O)CC3)c2)CC1 [Compound 44]
Male, Fischer 344 rats
  CAR 5 mg/kg IP Administration (% change CAR): -68%
Male, Fischer 344 rats; at CAR 5 mg/kg IP
  (Escape Loss) % failures to escape: 16%
[1]
  Ki: 42 nM

## CC(C)Oc1ccccc1N1CCN(Cc2cccc(C(=O)N3CCC4(CC3)OCCO4)c2)CC1 [Compound 45]
Male, Fischer 344 rats
  CAR 5 mg/kg IP Administration (% change CAR): -95%
Male, Fischer 344 rats; at CAR 5 mg/kg IP
  (Escape Loss) % failures to escape: 20%
[1]
  Ki: 20 nM

## COc1ccc(OC)c(N2CCN(Cc3cccc(C(=O)N4CCCCC4)c3)CC2)c1 [Compound 46]
Male, Fischer 344 rats
  CAR 5 mg/kg IP Administration (% change CAR): -66%
Male, Fischer 344 rats; at CAR 5 mg/kg IP
  (Escape Loss) % failures to escape: 48%
[1]; [2]
  Ki: 592 nM

## CC(C)Oc1ccccc1N1CCN(Cc2cccc(C(=O)N3CCN(c4ccccc4OC(C)C)CC3)c2)CC1 [Compound 50]
Male, Fischer 344 rats
  CAR 5 mg/kg IP Administration (% change CAR): 0%
Male, Fischer 344 rats; at CAR 5 mg/kg IP
  (Escape Loss) % failures to escape: 1%
[1]; [2]
  Ki: 171 nM

## CC(C)Oc1ccccc1N1CCN(Cc2cccc(C(=O)N3CCCCCCC3)c2)CC1 [Compound 55]
Male Charles-River rats; IP, 1.0 mg/kg
  Glass bead expulsion time: 13 min
Male, Fischer 344 rats
  CAR 5 mg/kg IP Administration (% change CAR): -93%
Male, Fischer 344 rats; at CAR 5 mg/kg IP
  (Escape Loss) % failures to escape: 27%

## CC(C)Oc1ccccc1N1CCN(Cc2cccc(C(=O)N3CCOCC3)c2)CC1 [Compound 56]
Male Charles-River rats; IP, 1.0 mg/kg
  Glass bead expulsion time: 15 min

## CC(C)Oc1ccccc1N1CCN(Cc2cccc(C(=O)N3CCC4CCCCC4C3)c2)CC1 (stereo not shown) [Compound 61]
Male, Fischer 344 rats
  CAR 5 mg/kg IP Administration (% change CAR): -36%
Male, Fischer 344 rats; at CAR 5 mg/kg IP
  (Escape Loss) % failures to escape: 3%
[1]; [2]
  Ki: 11.4 nM

## CC(C)Oc1ccccc1N1CCN(Cc2cccc(C(=O)N3CCN(Cc4ccccc4)CC3)c2)CC1 [Compound 64]
Male, Fischer 344 rats
  CAR IP Administration (% change CAR) at 30 mg/kg: -23%
Male, Fischer 344 rats; at CAR 30 mg/kg IP
  (Escape Loss) % failures to escape: 2%
[1]; [2]
  Ki: 40 nM

## CC(C)Oc1ccccc1N1CCN(Cc2cccc(C(=O)N3CCCCC3=O)c2)CC1.O=C(O)/C=C/C(=O)O [Compound 66, 1-[3-[[4-[2-(1-Methylethoxy)phenyl]-1-piperazinyl]methyl]benzoyl]-2-piperidone Fumarate]
Male Charles-River rats; IP, 1.0 mg/kg
  Glass bead expulsion time: 18 min
Male, Fischer 344 rats
  CAR 15 mg/kg IP Administration (% change CAR): -92%
Male, Fischer 344 rats; at CAR 15 mg/kg IP
  (Escape Loss) % failures to escape: 0%

## CC(C)Oc1ccccc1N1CCN(Cc2cccc(C(=O)N3CCCCCCC3=O)c2)CC1 [Compound 67]
Male, Fischer 344 rats
  CAR 5 mg/kg IP Administration (% change CAR): -28%
Male, Fischer 344 rats; at CAR 5 mg/kg IP
  (Escape Loss) % failures to escape: 7%
[1]; [2]
  Ki: 10.2 nM

## CC(C)Oc1ccccc1N1CCN(Cc2cccc(C(=O)NC3CCCCC3)c2)CC1 [Compound 71]
Male Charles-River rats; IP, 1.0 mg/kg
  Glass bead expulsion time: 23 min
Male, Fischer 344 rats
  CAR 15 mg/kg IP Administration (% change CAR): -86%
Male, Fischer 344 rats; at CAR 15 mg/kg IP
  (Escape Loss) % failures to escape: 0%

## CC(C)Oc1ccccc1N1CCN(Cc2cccc(C(=O)N(C)C3CCCCC3)c2)CC1 [Compound 72]
Male Charles-River rats; IP, 1.0 mg/kg
  Glass bead expulsion time: 29 min
Male, Fischer 344 rats
  CAR 5 mg/kg IP Administration (% change CAR): -99%
Male, Fischer 344 rats; at CAR 5 mg/kg IP
  (Escape Loss) % failures to escape: 21%

## CC(C)Oc1ccccc1N1CCN(Cc2cccc(C(=O)N(C)Cc3ccccc3)c2)CC1 [Compound 74]
Male, Fischer 344 rats
  CAR 5 mg/kg IP Administration (% change CAR): -23%
Male, Fischer 344 rats; at CAR 5 mg/kg IP
  (Escape Loss) % failures to escape: 1%
[1]; [2]
  Ki: 13 nM

## CC(C)Oc1ccccc1N1CCN(Cc2cccc(C(=O)Nc3ccc(F)cc3)c2)CC1 [Compound 75]
Male, Fischer 344 rats
  CAR IP Administration (% change CAR) at 30 mg/kg: -1%
Male, Fischer 344 rats; at CAR 30 mg/kg IP
  (Escape Loss) % failures to escape: 0%
[1]; [2]
  Ki: ~30 nM

## CCN1CCCC1CNC(=O)c1cccc(CN2CCN(c3ccccc3OC(C)C)CC2)c1 (stereo not shown) [Compound 76]
Male, Fischer 344 rats
  CAR 15 mg/kg IP Administration (% change CAR): -75%
Male, Fischer 344 rats; at CAR 15 mg/kg IP
  (Escape Loss) % failures to escape: 0%
[1]; [2]
  Ki: 13.9 nM

## O=C(c1cccc(CN2CCN(c3cc(Cl)cc(Cl)c3)CC2)c1)N1CCCCC1 [Compound 94]
Male, Fischer 344 rats
  CAR 5 mg/kg IP Administration (% change CAR): -43%
Male, Fischer 344 rats; at CAR 5 mg/kg IP
  (Escape Loss) % failures to escape: 3%
[1]; [2]
  Ki: 21 nM

## CC(C)Oc1ccccc1N1CCN(Cc2cccc(C(=O)NCCCCCCN)c2)CC1 [Compound 97]
Male, Fischer 344 rats
  CAR 15 mg/kg IP Administration (% change CAR): -99%
Male, Fischer 344 rats; at CAR 15 mg/kg IP
  (Escape Loss) % failures to escape: 26%
[1]; [2]
  Ki: 15 nM

## CC(C)Oc1ccccc1N1CCN(Cc2cccc(C(=O)NCCCCCCNC(=O)OC(C)(C)C)c2)CC1 [Compound 98]
Male, Fischer 344 rats
  CAR 15 mg/kg IP Administration (% change CAR): -8%
Male, Fischer 344 rats; at CAR 15 mg/kg IP
  (Escape Loss) % failures to escape: 0%
[1]; [2]
  Ki: 88 nM

## CC(C)Oc1ccccc1N1CCN(Cc2cccc(S(=O)(=O)N3CCCC3)c2)CC1 [Compound 106]
Male, Fischer 344 rats
  CAR 5 mg/kg IP Administration (% change CAR): -27%
Male, Fischer 344 rats; at CAR 5 mg/kg IP
  (Escape Loss) % failures to escape: 0%
[1]; [2]
  Ki: 196 nM

## CC(C)Oc1ccccc1N1CCN(Cc2cccc(S(=O)(=O)N3CCC(O)CC3)c2)CC1 [Compound 107, 1-[3-[[4[2-(1-Methylethoxy)phenyl]-1-piperazinyl]methyl]phenylsulfonyl]-4-hydroxypiperidine]
Male, Fischer 344 rats
  CAR 5 mg/kg IP Administration (% change CAR): -95%
Male, Fischer 344 rats; at CAR 5 mg/kg IP
  (Escape Loss) % failures to escape: 5%
[1]; [2]
  Ki: 69 nM
